Key:
[1] = Stability test under acidic condition; type: physicochemical; conditions: ethanol solution / Pharmacopoeia first liquid 1 to 1, 37° C., 24 hours, HPLC
Method: A 1 mg/ml ethanol solution of an evaluation compound and the test liquid first liquid of the disintegration test of The Pharmacopoeia of Japan (to be referred to as Pharmacopoeia first liquid hereinafter) were mixed at a ratio of 1 to 1 (0.5 ml for each) and stirred at 37° C. for 24 hours. Amount of the evaluation compound at 0 minute or after 24 hours was determined by an HPLC apparatus. Survival rate (%) of the evaluation compound was calculated by the following formula. Survival rate of evaluation compound (%)=amount of evaluation compound after 24 hours of treatment with Pharmacopoeia first liquid/amount of evaluation compound just after treatment with Pharmacopoeia first liquid×100 <HPLC Conditions> • Apparatus: A 1200 series (manufactured by Agilent Technologies, Inc.), • Column: YMC-Pack C4, A-802, 150×4.6 mm I.D., S-5 μm, 120 A (manufactured by YMC), • Mobile phase: A: water, B: acetonitrile, A/B: 35/65, • Column temperature: room temperature, • Flow rate: 1.0 mL/min.

[2] = Light stability test; type: physicochemical; conditions: 2500 Lux (D65 lamp), 25° C., HPLC
Method: After weighing 5 mg of an evaluation compound, it was put into a test tube made of glass which was then sealed with a stop cock. Said test tube was stored at 25° C. for 11 days or 20 days under irradiation of 2500 Lux (a D65 lamp was used as the light source). The evaluation compound after 11 days or 20 days of irradiation was determined by an HPLC apparatus. Survival rate (%) of the evaluation compound was calculated by the following formula. Survival rate of evaluation compound (%)=amount of evaluation compound after 11 days or 20 days of irradiation (mg)/weighed value of evaluation compound (mg)×100 <HPLC Conditions> • Apparatus: A 1200 series (manufactured by Agilent Technologies, Inc.), • Column: YMC-Pack C4, A-802, 150×4.6 mm I.D., S-5 μm, 120 A (manufactured by YMC), • Mobile phase: A: water, B: acetonitrile, A/B: 35/65, • Column temperature: room temperature, • Flow rate: 1.0 mL/min.

[3] = molecular target: T1, human CRF receptor I (Homo sapiens, UniProt P34998); experiment: Binding assay (125I-CRF, membrane fraction); conditions: 125I-CRF 0.25 nM, membrane fraction of CHO-K1 cells expressing human CRF receptor I, room temperature 2 hours
T1 construct: expressed in transfected cells; host or cells: CHO-K1
T1 sequence (P34998 24-415): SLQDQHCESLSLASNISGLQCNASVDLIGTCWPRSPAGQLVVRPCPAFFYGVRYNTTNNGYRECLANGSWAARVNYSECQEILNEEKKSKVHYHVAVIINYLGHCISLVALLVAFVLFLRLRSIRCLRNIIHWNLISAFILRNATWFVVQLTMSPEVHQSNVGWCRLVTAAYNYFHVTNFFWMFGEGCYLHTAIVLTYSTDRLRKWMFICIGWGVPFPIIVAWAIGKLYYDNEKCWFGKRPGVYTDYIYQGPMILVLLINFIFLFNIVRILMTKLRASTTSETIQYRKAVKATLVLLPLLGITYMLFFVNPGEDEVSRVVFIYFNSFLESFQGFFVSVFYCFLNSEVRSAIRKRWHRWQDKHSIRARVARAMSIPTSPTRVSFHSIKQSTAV
Method: The forced-expression cell strain of the human CRF receptor I (parent strain is CHO-K1 cell) was cultured until the cell was confluent and collected with a scraper. The collected cells were washed twice with PBS, and were suspended with an ice-colded binding assay buffer (Tris-HCl (50 mM, pH 7.0), EDTA (2 mM, pH 8.0), and MgCl2 (10 mM)). After fractured with a dounce-type homogenizer, the suspended cells were centrifuged at 10,000 g, and a membrane fraction was collected. The collected membrane fraction was resuspended with a little amount of the binding assay buffer, thereafter diluted with the binding assay buffer so as to have a concentration of 1 mg/mL. The obtained membrane fraction was used for a binding assay.
^125I-CRF was diluted with the binding assay buffer so as to have a concentration of 0.5 nM, whereby 50 μL of the diluted ^125I-CRF was added to a siliconized 1.5 mL tube. Next, evaluation compounds diluted at appropriate times, DMSO (for general binding), or 100 μM of CRF (for non-specific binding), was added to a […]. Finally, 50 μL of the membrane fraction was added thereto and the reaction was started (final concentration of ^125I-CRF was 0.25 nM). The tube was incubated at room temperature for 2 hours. After the reaction, the tube was centrifuged at 20,000 g in order to collect the membrane fraction. The supernatant was discarded, and the pellet was washed with an ice-colded PBS/0.01% TritonX-100. A membrane binding count was measured using a y counter. The specific binding count was obtained by subtracting the non-specific count from the measured count.

[4] = test system: Male Wistar rats; experiment: Water aversive stress model in rats; type: in vivo, rat; conditions: 3 mg/kg, oral once 30 minutes before stress, 60 minutes after loading the water aversive stress
Method: Male Wistar rats of 7 weeks of age were used in the test. A platform of 8.5 cm in diameter and 11 cm in height was arranged in the center of a plastic container (30 cm in length, 45 cm in width, 37 cm in height), and water was filled therein to a depth of about 10 cm. Each rat was put on the platform, and the number of evacuations was counted 5, 30 and 60 minutes thereafter. To the vehicle group, 20% Wellsolve (registered trademark) was orally administered, and an evaluation compound having varied concentrations was orally administered to the evaluation compound group, once 30 minutes before loading the water aversive stress. The dose was set to be 5 ml/kg for both cases.

[5] = molecular target: T1, human CRF receptor I; experiment: Receptor antagonistic activity (cyclic AMP assay); type: cell-based; conditions: accumulated cyclic AMP, human/rat CRF stimulation, cells expressing human CRF receptor I, 37° C. 15 minutes
Method: The forced expression cell strain of the human CRF receptor I was cultured at 37° C. under 5% carbon dioxide and 95% air by using a Ham's F-12 medium (F-12 nutrient mixture) containing 10% bovine fetal serum and 1% antibiotic substance-antifungal agent. On the previous day before the cyclic AMP was measured, the cells were inoculated into a 96-well plate in an amount of 1×10^4 cell/well. On the measurement day, the cells were washed twice with a Ham's F-12 medium, whereby a solution of Ham's F-12 medium/1 mM 3-isobutyl-1-methylxanthine (assay medium) (178 μL) was added to each well. After the incubation at 37° C. for 15 minutes, the solutions (2 μL) of evaluation compound in various concentrations were added thereto, or DMSO (2 μL) was added to a CRF group and a blank group. An assay medium (20 μL) containing 10 nM human/rat CRF was added to wells of an evaluation compound group and the CRF group. An assay medium (20 μL) containing 0.00001% acetic acid was added to the blank group. Each group was further incubated at 37° C. for 15 minutes. The supernatant was removed and ice-colded to stop the reaction. Note that the reactions of 2 wells were the same in all reactions. The measurement for accumulated cyclic AMP amount in cells was carried out by using a cyclic AMP Biotrak enzyme immunoassay system (manufactured by GE Healthcare). The accumulated cyclic AMP amounts were calculated by subtracting mean values of corresponding 2 wells in the blank group from that of 2 wells. The IC50 values were calculated with non-linear regression analysis by defining logarithm concentration of the evaluation compound as independent variable and an accumulated cyclic AMP amount as dependent variable.

Row | SMILES | residual ratio [1] | residual ratio after 20 days [2] | IC50 [3] | increase of the number of evacuations for the vehicle group [4] | IC50 [5]
1 | CCC(CC)c1cc(C)n2nc(-c3ccc(OC)cc3C)n(C)c(=O)c12 [Example 8(1), 5-(1-ethylpropyl)-2-(4-methoxy-2-methylphenyl)-3,7-dimethylpyrrolo[2,1-f][1,2,4]triazin-4(3H)-one] | 90% | 93% | – | – | –
2 | CCn1c(-c2ccc(SC)cc2Cl)nn2c(C)cc(C(C)C)c2c1=O [Example 14(2), 2-[2-chloro-4-(methylthio)phenyl]-3-ethyl-5-isopropyl-7-methylpyrrolo[2,1-f][1,2,4]triazin-4(3H)-one] | – | – | 4.5 nM | significantly inhibited | 2.1 nM
